Assay results as given in EP0015615A1, “Phenyl piperazine derivatives, their preparation and antiagressive medicines containing them” (DUPHAR INTERNATIONAL RESEARCH B.V, priority 1979, dated 1980).

What follows are compounds tested on fighting behaviour of isolated mice (assay: test on antiagressive activity in isolated mice). Details: Mus musculus, po, 1 h; male albino mice kept isolated for 4 weeks; administered orally; fighting behaviour evaluated sixty minutes after administration; 5 mice per dose.
Assay type: in vivo
Description: The ED50-values mentioned in the table were determined in a test on antiagressive activity in isolated mice (Advances in Pharmacol. 5, (1967), 79). In this test, male albino mice were kept isolated for a period of 4 weeks and then selected for the test on the basis of fighting behaviour present. The selection criterion is the occurrence of 3 or more fighting periods within 3 minutes after a mouse which has not been kept isolated has been placed in the cage of the mouse kept isolated. The compounds to be investigated were administered orally to the selected mice. Per dose 5 mice were used. Sixty minutes after the administration of the compound to be investigated the animals were evaluated again for fighting behaviour. […] The ED50-value in mg of active substance per kg of body weight was calculated from the results obtained.

Compound	ED50 [mg/kg]
NC(=O)NC(=O)NCCN1CCN(c2cccc(C(F)(F)F)c2)CC1 [1 [-2-(N-allophanoylamino)ethyl]-4-(3-trifluoromethylphenyl)piperazine]	1.5
CCN(CCN1CCN(c2cccc(C(F)(F)F)c2)CC1)C(C)=O [R4=CH3, R5=C2H5, R6=3-CF3, T=O, m=0, p=2, 1-[2-(N-acetyl-N-ethylamino)ethyl]-4-(3-trifluoromethylphenyl) piperazine]	3.2
CC(=O)N(C)CCN1CCN(c2cccc(C(F)(F)F)c2)CC1.Cl [R4=CH3, R5=CH3, R6=3-CF3, T=O, m=0, p=2, 1-[2-(N-acetyl-N-methylamino)ethyl]-4-(3-trifluoromethylphenyl) piperazine hydrochloride (1:1)]	0.9
CC(=O)NCCN1CCN(c2cccc(Br)c2)CC1 [R4=CH3, R5=H, R6=3-Br, T=O, m=0, p=2, 1-[2-(N-acetylamino)ethyl]-4-(3-bromophenyl)piperazine]	2.6
CC(=O)NCCN1CCN(c2cccc(C(F)(F)F)c2)CC1 [R4=CH3, R5=H, R6=3-CF3, T=O, m=0, p=2, 1-[2-(N-acetylamino)ethyl]-4-(3-trifluoromethylphenyl)piperazine]	0.7
CC(=O)NCC[N+]1([O-])CCN(c2cccc(C(F)(F)F)c2)CC1 [R4=CH3, R5=H, R6=3-CF3, T=O, m=1, p=2, 1-[2-(N-acetylamino)ethyl]-4-(3-trifluoromethylphenyl)piperazine 1-oxide]	1.5
CC(=S)NCCN1CCN(c2cccc(C(F)(F)F)c2)CC1.Cl [R4=CH3, R5=H, R6=3-CF3, T=S, m=0, p=2, 1-[2-(N-thioacetylamino)ethyl]-4-(3-trifluoromethylphenyl)piperazine hydrochloride]	1.6
CC(=O)NCCN1CCN(c2cccc(Cl)c2)CC1 [R4=CH3, R5=H, R6=3-Cl, T=O, m=0, p=2, 1-[2-(N-acetylamino)ethyl]-4-(3-chlorophenyl)piperazine]	1.8
COC(=O)NCCN1CCN(c2cccc(C(F)(F)F)c2)CC1.Cl [R4=CH3O, R5=H, R6=3-CF3, T=O, m=0, p=2, 1-[2-(N-methoxycarbonylamino)ethyl]-4-(3-trifluoromethylphenyl) piperazine hydrochloride]	0.6
COC(=O)NCCN1CCN(c2cccc(Cl)c2)CC1.Cl.Cl [R4=CH3O, R5=H, R6=3-Cl, T=O, m=0, p=2, 1-[2-(N-methoxycarbonylamino)ethyl]-4-(3-chlorophenyl)piperazine dihydrochloride]	3.5
Cl.O=CNCCN1CCN(c2cccc(C(F)(F)F)c2)CC1 [R4=H, R5=H, R6=3-CF3, T=O, m=0, p=2, 1-[2-(N-formylamino)ethyl] -4-(3-trifluoromethylphenyl)piperazine hydrochloride]	1.7
O=CNCCN1CCN(c2cccc(Cl)c2)CC1 [R4=H, R5=H, R6=3-Cl, T=O, m=0, p=2, 1-[2-(N-formylamino)ethyl]-4-(3-chlorophenyl)piperazine]	1.5
NC(=O)NCCN1CCN(c2cccc(C(F)(F)F)c2)CC1 [R4=NH2, R5=H, R6=3-CF3, T=O, m=0, p=2, 1-[2-(N-aminocarbonylamino)ethyl]-4-(3-trifluoromethylphenyl) piperazine]	1.3
NC(=O)NCC[N+]1([O-])CCN(c2cccc(C(F)(F)F)c2)CC1 [R4=NH2, R5=H, R6=3-CF3, T=O, m=1, p=2, 1-[2-(N-aminocarbonylamino)ethyl]-4-(3-trifluoromethylphenyl) piperazine 1-oxide]	1.9
NC(=O)NCCN1CCN(c2cccc(Cl)c2)CC1 [R4=NH2, R5=H, R6=3-Cl, T=O, m=0, p=2, 1-[2-(N-aminocarbonylamino)ethyl]-4-(3-chlorophenyl)piperazine]	2.3
NC(=O)NC(=O)NCCN1CCN(c2cccc(Cl)c2)CC1 [R4=NH2CONH, R5=H, R6=3-Cl, T=O, m=0, p=2]	2.3
CC(=O)NCCN1CCN(c2ccccc2)CC1 [US pat. spec. 2.722.529 ex.12, reference compound]	15
CC(=O)NCCN1CCN(c2ccccc2Cl)CC1 [US pat. spec. 2.833.770, reference compound]	18
